From US20130178453A1, “Cannabinoid Agonists” (priority 2010, published 2013)
Values joined by “and” are separate entries in the source; they are usually repeats but may differ in a detail not shown here. Equal entries are not always repeated.

Legend:
hCB1 [1] = molecular target: T1, hCB1 (Homo sapiens, UniProt P21554); experiment: hCB1 GTPγS agonist assay (HEK-293 membranes); assay type: biochemical
Description: cDNA expression clones for human CB 1 (hCB1, Genbank Accession No. AY225225) and human CB2 (hCB2, Genbank Accession No. AY242132) expressed in vector pcDNA3.1+ were purchased from UMR cDNA Resource Center, Rolla, Mo. (Clone ID CNR01L000 for hCB1; CNR0200000 for hCB2).
Stable, HEK-293-derived cell lines that recombinantly express hCB1 or hCB2 were established. In brief, the clone hCB1 (CNR1L) or hCB2 (CNR2) was transfected into human embryonic kidney cells (HEK-293) using Lipofectamine 2000 (Gibco, Cat#11668-019) according to the manufacturer's protocol. Transfected clones were isolated by single colony purification and clones were screened for receptor expression using a whole cell, ^3H—CP 55,940 radioligand binding assay. HEK-293 stable cells were maintained in Dulbecco's modified Eagles medium (DMEM) containing 10% fetal bovine serum, 2 mM L-glutamine and 0.5 mg/mL G-418.
Membranes were isolated from transfected cells as follows. Monolayers of cultured cells were washed twice with phosphate-buffered saline (PBS). Cells were scraped into 20 mM HEPES, pH 7.4, 10 mM EDTA containing complete cocktail protease inhibitors (Roche, Catalog #11 697 498 001), and were homogenized by an electric-powered mechanical probe homogenizer (Omni GLH; probe G7-195S) for 40 seconds at 7000 rpm. Homogenates were centrifuged 10 minutes at 1000×g at 4° C. The supernatant was collected and was centrifuged for 1 hour at 40,000×g. The supernatant was then decanted and the resulting pellet was re-suspended in 20 mM HEPES, pH 7.4, 5 mM MgCl2, 1 mM EDTA, 10% sucrose with complete cocktail protease inhibitors. Protein concentration of membrane suspensions were measured by Bradford Protein Assay using bovine serum albumin as the standard (BioRad catalog #500-0006). Protein concentrations of membrane suspensions were adjusted with the final buffer in the range of 5 to 10 mg/mL and were stored at −80° C. until further use.
^35S GTPγS binding assays were performed by incubating recombinant cell membranes prepared above (5 μg) in the presence of scintillation proximity assay beads (SPA beads, Catalog #RPNQ0252 GE Healthcare, Buckinghamshire, England) in GTPγS binding buffer [50 mM HEPES (pH 7.4), 100 mM NaCl, 5 mM MgCl2, 0.001% saponin (Sigma catalog #S4521)] supplemented with 20 uM GDP (Sigma catalog #G7127) in the presence or absence of test compound. The reaction was carried out in 96-well microplates with 0.1 nM [^35S]GTPγS (specific activity=1250 Ci/mmol; Perkin Elmer catalog #NEG030X250UC) in a final volume of 100 μL. After a 90 min room temperature incubation, the reaction was analyzed using a scintillation counter (Perkin Elmer Microbeta instrument). Binding data were analyzed using GraphPad Prism.

hCB1 [2] = molecular target: T1, hCB1; experiment: hCB1 cAMP agonist assay (HEK-293 cells); assay type: cell-based
hCB1 [3] = molecular target: T1, hCB1; experiment: hCB1 radioligand binding assay ([3H]-CP 55,940 displacement); conditions: hCB1 IC50 (CP displ, nM, HEK), HEK membranes
Procedure, shortened: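 Membranes from stable HEK-293 cells expressing recombinant hCB1 (2-10 μg protein) incubated 90 minutes at room temperature with 0.5 nM [3H]-CP 55,940 in 50 mM Tris-HCl pH 7.5, 5 mM MgCl2, 2.5 mM EDTA, 0.1% fatty acid free BSA. Filtration then scintillation counting; nonspecific binding with 1 μM unlabelled CP 55,940.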

hCB2 [4] = molecular target: T2, hCB2 (Homo sapiens, UniProt P34972); experiment: hCB2 GTPγS agonist assay (HEK-293 membranes); assay type: biochemical
Procedure, shortened: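 Membranes from HEK-293 cells transfected with human CB2 (5 μg) incubated with SPA beads, 0.1 nM [35S]GTPγS and 20 uM GDP in 50 mM HEPES pH 7.4, 100 mM NaCl, 5 mM MgCl2, 0.001% saponin. Incubation 90 min at room temperature. Agonist-stimulated binding read by scintillation counting.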

hCB2 [5] = molecular target: T2, hCB2; experiment: hCB2 cAMP agonist assay (HEK-293 cells); assay type: cell-based
Procedure, shortened: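 HEK-293 cells stably expressing hCB2, treated 30 min at 37° C with compound in HBSS/10 mM HEPES/0.1% BSA alongside forskolin (90 uM in the 3× solution, not final).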

hCB2 [6] = molecular target: T2, hCB2; experiment: hCB2 radioligand binding assay ([3H]-CP 55,940 displacement); conditions: hCB2 IC50 (CP displ, nM, HEK), HEK membranes
Procedure, shortened: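 Membranes from cells transfected with human CB2 cDNA (pcDNA3.1+), kept in 20 mM HEPES pH 7.4, MgCl2, EDTA, sucrose with protease inhibitors.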

[7] = GTPγS agonist, HEK membranes, read-out: hCB1 EC50 (GTPyS ag, nM, HEK)
[8] = cAMP agonist, HEK, 96-well, read-out: hCB1 EC50 (cAMP ag, nM, HEK (96-well))

T1 sequence (P21554 whole entry): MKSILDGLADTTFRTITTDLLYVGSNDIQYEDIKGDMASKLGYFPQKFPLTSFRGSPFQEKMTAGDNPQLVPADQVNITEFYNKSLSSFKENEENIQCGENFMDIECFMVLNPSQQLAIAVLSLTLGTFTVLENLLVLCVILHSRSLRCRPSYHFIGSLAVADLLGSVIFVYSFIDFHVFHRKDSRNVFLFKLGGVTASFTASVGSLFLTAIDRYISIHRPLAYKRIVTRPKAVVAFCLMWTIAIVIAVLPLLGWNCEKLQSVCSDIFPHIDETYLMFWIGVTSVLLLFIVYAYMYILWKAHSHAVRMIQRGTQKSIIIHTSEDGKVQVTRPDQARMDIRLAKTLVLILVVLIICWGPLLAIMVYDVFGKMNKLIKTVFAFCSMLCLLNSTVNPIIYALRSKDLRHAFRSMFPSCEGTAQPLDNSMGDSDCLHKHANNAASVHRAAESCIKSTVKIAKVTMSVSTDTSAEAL
T2 sequence (P34972 whole entry): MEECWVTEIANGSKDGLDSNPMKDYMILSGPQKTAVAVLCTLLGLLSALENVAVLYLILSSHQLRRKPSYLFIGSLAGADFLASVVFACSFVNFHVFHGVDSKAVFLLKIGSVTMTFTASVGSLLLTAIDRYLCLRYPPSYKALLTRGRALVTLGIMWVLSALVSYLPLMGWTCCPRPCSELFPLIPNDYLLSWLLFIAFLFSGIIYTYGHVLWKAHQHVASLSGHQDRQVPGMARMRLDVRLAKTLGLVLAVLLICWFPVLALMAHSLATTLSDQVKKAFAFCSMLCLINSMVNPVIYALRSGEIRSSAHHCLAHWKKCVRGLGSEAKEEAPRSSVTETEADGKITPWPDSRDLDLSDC

Row | Compound | EC50 (hCB1 [1]; [7]) | EC50 (hCB1 [2]; [8]) | IC50 (hCB1 [3]) | EC50 (hCB2 [4]) | EC50 (hCB2 [5]) | IC50 (hCB2 [6]) | EC50 (hCB1 [1]) | EC50 (hCB1 [2]) | EC50 (hCB1 [2]; cAMP agonist, HEK, 24-well, read-out: hCB1 EC50 (cAMP ag, nM HEK (24-well))) | hCB1 EC50 (cAMP ag, nM, HEK (96-well)) (hCB1 [2]; cAMP agonist, HEK, 96-well) | hCB1 EC50 (cAMP ag, nM HEK (24-well)) (hCB1 [2]; cAMP agonist, HEK, 24-well) | EC50 (hCB2 [4]; GTPγS agonist, HEK membranes, read-out: hCB2 EC50 (GTPyS ag, nM, HEK)) | EC50 (hCB2 [5]; cAMP agonist, HEK, 96-well, read-out: hCB2 EC50 (cAMP ag, nM, HEK (96-well)))
1 | CCCn1c(C(=O)c2cn(CC)c3ccccc23)cc2ccsc21 [Compound I-42] | 100 to 1000 nM | 100 to 1000 nM | < 100 nM | < 100 nM | < 100 nM | < 100 nM |  |  |  |  |  |  | 
2 | CCCn1cc(C(=O)c2cc3ccsc3n2CCC)c2ccccc21 [Compound I-62] |  |  | < 100 nM | < 100 nM | < 100 nM | < 100 nM | 100 to 1000 nM | < 100 nM |  |  |  |  | 
3 | CCCn1c(C(=O)c2c(C)n(CCN3CCOCC3)c3sccc23)cc2ccccc21 [Compound I-11] | 100 to 1000 nM |  | < 100 nM | < 100 nM | < 100 nM | < 100 nM |  |  |  |  |  |  | 
4 | CCCn1c(C(=O)c2c(C)n(CC3CCOCC3)c3ccccc23)cc2ccsc21 [Compound I-66] |  |  | 100 to 1000 nM | < 100 nM | < 100 nM | < 100 nM | 100 to 1000 nM | < 100 nM |  |  |  |  | 
5 | CCCn1c(C(=O)c2c(C)n(CCC3CCOCC3)c3ccccc23)cc2ccsc21 [Compound I-57] |  |  | 100 to 1000 nM | < 100 nM | < 100 nM | < 100 nM | 100 to 1000 nM | 100 to 1000 nM |  |  |  |  | 
6 | CCCn1cc(C(=O)c2cc3ccsc3n2CC)c2ccccc21 [Compound I-70] |  |  | 100 to 1000 nM | < 100 nM | < 100 nM | < 100 nM | 100 to 1000 nM | 100 to 1000 nM |  |  |  |  | 
7 | CCCn1c(C(=O)c2c(C)[nH]c3sccc23)cc2ccsc21 [Compound I-84] | > 10000 nM | < 100 nM |  |  |  |  |  |  |  |  |  |  | 
8 | CCCn1cc(C(=O)c2cc3ccsc3n2CCC)c2cccnc21 [Compound I-45] |  |  | < 100 nM and 100 to 1000 nM | < 100 nM | < 100 nM | < 100 nM | 100 to 1000 nM | 100 to 1000 nM |  |  |  |  | 
9 | CCn1c(C(=O)c2cn(CCCNS(C)(=O)=O)c3ccccc23)cc2ccsc21 [Compound I-28] | 1000 to 10000 nM | 100 to 1000 nM | 100 to 1000 nM | < 100 nM | < 100 nM | < 100 nM |  |  |  |  |  |  | 
10 | CCCn1cc(C(=O)c2cc3ccsc3n2CC)c2cccnc21 [Compound I-34] |  |  | 1000 to 10000 nM | < 100 nM | < 100 nM | < 100 nM | 100 to 1000 nM | 1000 to 10000 nM |  |  |  |  | 
11 | CCCCCn1c(C)c(C(=O)c2cc3ccsc3n2CCC)c2ccccc21 [Compound I-60] |  |  | < 100 nM | < 100 nM | < 100 nM | < 100 nM | 100 to 1000 nM | < 100 nM |  |  |  |  | 
12 | CCn1c(C(=O)c2c3c(n(CC4CCOCC4)c2C)CCCC3)cc2ccsc21 [Compound I-86] | 100 to 1000 nM | 100 to 1000 nM | < 100 nM | < 100 nM | < 100 nM | < 100 nM |  |  |  |  |  |  | 
13 | CCCn1c(C(=O)c2c(C)n(CCC)c3sccc23)cc2ccsc21 [Compound I-83] | 100 to 1000 nM | < 100 nM |  |  | < 100 nM |  |  |  | < 100 nM |  |  |  | 
14 | CCCn1c(C(=O)c2cn(CC3CCOCC3)c3ccccc23)cc2ccsc21 [Compound I-41] |  |  | < 100 nM | < 100 nM | < 100 nM | < 100 nM | < 100 nM | < 100 nM |  |  |  |  | 
15 | CCn1c(C(=O)c2cn(CC3CCOCC3)c3ccccc23)cc2ccsc21 [Compound I-16] |  |  | < 100 nM | < 100 nM | < 100 nM | < 100 nM | < 100 nM | < 100 nM |  |  |  |  | 
16 | CCCn1c(C)c(C(=O)c2cc3ccsc3[nH]2)c2ccccc21 [Compound I-74] |  |  | 1000 to 10000 nM | 100 to 1000 nM | 100 to 1000 nM | 100 to 1000 nM |  |  |  | NS (“Not Significant,” which means less than 30% agonist activity when compared to the positive control) |  |  | 
17 | CCCn1cc(C(=O)c2cc3ccsc3n2C)c2ccccc21 [Compound I-32] |  |  | 100 to 1000 nM | < 100 nM | < 100 nM | < 100 nM |  | 100 to 1000 nM |  |  |  |  | 
18 | CCCn1c(C)c(C(=O)c2cc3ccsc3n2CCC)c2c1CCCC2 [Compound I-77] |  |  | 1000 to 10000 nM |  |  | < 100 nM |  |  |  | NS (“Not Significant,” which means less than 30% agonist activity when compared to the positive control) | NS (“Not Significant,” which means less than 30% agonist activity when compared to the positive control) | < 100 nM | < 100 nM
